# Earlier results in patent US12194143B2, “Mycophenolate oral suspension” (LIQMEDS WORLDWIDE LIMITED, priority 2018, dated 2025).
# Structures can show the parent of a compound that is named as a salt. Where two headings read alike, the source gives them in different places.
compound,measurement,setting,value
"C[C@@H](NCCCc1cccc(C(F)(F)F)c1)c1cccc2ccccc12 [Cinacalcet hydrochloride, N-[1-(R)-(−)-(1-naphthyl)ethyl]-3-[3-(trifluoromethyl)phenyl]-1-aminopropane]",solubility,in 95% ethanol,soluble
same,solubility,in methanol,soluble
same,solubility,in water,slightly soluble
